Read-outs that look alike come from different tables or passages of the source.
Assays:
in vitro = type: cell-based; conditions: human; Hep G 2.2.15 cells, MTT, day 3 post-dosing
Experimental: Hep G 2.2.15 cells were inoculated in a 96-well plate (with cell number being 5.5×10^4) to continually cultivate for 3 days, new culture solutions containing different concentrations of drugs were added, and 3 wells were provided in parallel; at day 3 post-dosing, MTT was added until 7.5 mg/ml, and continued to cultivate for 2 hours, the supernate was discarded, isopropanol containing 10% […] was added, 120 μl/well, and 0.4 μl/well was further added.

[1] = system: liver damage in mice caused by D-aminogalactose; type: in vivo, Kunmin mice; conditions: serum, D-aminogalactose 750 mg/kg model, 0.2 mmol oral twice, 24 hours after second administration
Experimental: Kunmin mice (20 g) were grouped randomly (8/group). 0.2 mmol of a compound to be tested was orally administered; after 2 hours post-dosing, D-aminogalactose was intraperitoneally injected at a dose of 750 mg/kg to prepare a liver damage model, and the normal saline was subcutaneously injected as a normal control group. After modeling for 12 hours, 0.2 mmol of the compound to be tested was orally administrated again. After 24 hours from the second administration, blood samples were collected to take serum specimen so as to determine ALT, AST.

[2] = system: liver damage in mice caused by CCl4; type: in vivo, Kunmin mice; conditions: serum, CCl4 model, 0.2 mmol oral twice, 24 hours after second administration
Experimental: Kunmin mice (20 g) were grouped randomly (8/group). 0.2 mmol of a compound to be tested was orally administered; after 1 hour post-dosing, a 0.1% peanut oil solution of CCl4 was subcutaneously injected (10 mL/kg), to prepare a liver damage model; the normal saline was injected as a normal control group. After modeling for 12 hours, 0.2 mmol of the compound to be tested was orally administrated again. After 24 hours from the second administration, blood samples were collected to take serum specimen so as to determine ALT, AST.

DHBV = test: animal or person; type: in vivo, sheldrakes; conditions: Duck hepatitis B virus, po, 336 h, serum DHBV DNA; for inhibition in vivo at 20 mg/kg: 20 mg/kg intragastric once a day for 14 days; for inhibition in vivo at 10 mg/kg: 10 mg/kg intragastric once a day for 14 days
Experimental: The sheldrakes infected by vertical transmission and being positive in DHBV DNA detection were grouped randomly, 5/group. Water and different doses of the compound to be tested were intragastrically administrated, respectively, once a day, for 14 days. Venous blood samples were collected pre-dosing, at day 14 of dosing and at day 7 after drug withdrawal, the serum DHBV DNA content was measured using external standard TaqMan real-time fluorescence PCR method, and the inhibition ratio was calculated, as compared to the solvent group.

[3] = read-out: Inhibition ratio (%) Day 14 of dosing
[4] = read-out: Inhibition ratio (%) day 7 after drug withdrawal

C[C@H](Cn1cnc2c(N)ncnc21)OCP(=O)(Oc1cccc2c1OCO2)Oc1cccc2c1OCO2 [Compound I5, 9-[(R)-2-[[bis-((benzo[1,3]dioxolan-4-yl)-oxyl)-phosphonyl]-methoxyl]-propyl]-adenine]
CC50 at 3 days (in vitro): > 200 µM

COc1ccc(Sc2nc(N)nc3c2ncn3CCOCP(=O)(Oc2cccc3c2OCO3)Oc2cccc3c2OCO3)cc1 [Compound I7, 2-amino-6-(4-methoxylphenyl)thio-9-[[[bis-((benzo[1,3]dioxolan-4-yl)-oxyl)-phosphonyl]-methoxyl]-ethyl]-purine]
CC50 at 3 days (in vitro): > 200 µM

Cc1cc(OCP(=O)(Oc2ccc3c(c2)OCO3)Oc2ccc3c(c2)OCO3)cc(C)c1Cc1ccc(O)c(C(C)C)c1 [Compound I9, bis-(benzo[1,3]dioxolan-5-yl) [(3,5-dimethyl-4-(4′-hydroxyl-3′-isopropylbenzyl)phenoxyl)-methyl]-phosphonate]
CC50 at 3 days (in vitro): > 200 µM

CC(C)Cc1sc(N)nc1-c1ccc(P(=O)(Oc2ccc3c(c2)OCO3)Oc2ccc3c(c2)OCO3)o1 [Compound I10, bis-(benzo[1,3]dioxolan-5-yl) [5-[2-amino-5-(2-methylpropyl)-thiazol-4-yl]-furan-2-yl]-phosphonate]
CC50 at 3 days (in vitro): > 200 µM

C=C1[C@H](COP(=O)(Oc2ccc3c(c2)OCO3)Oc2ccc3c(c2)OCO3)[C@@H](O)C[C@@H]1n1cnc2c(OC)nc(N)nc21 [Compound I16, 2-amino-6-methoxyl-9-[(1S,3R,4S)-4-hydroxyl-3-(bis-(((benzo[1,3]dioxolan-5-yl)-oxyl)-phosphoryl)-oxymethyl)-2-methylenecyclopentyl]-purine]
CC50 at 3 days (in vitro): > 200 µM

C[C@@]1(F)[C@H](O)[C@@H](COP(=O)(Oc2ccc3c(c2)OCO3)Oc2ccc3c(c2)OCO3)O[C@H]1n1ccc(=O)[nH]c1=O [Compound I17, 5′-O-[bis-((benzo[1,3]dioxolan-5-yl)-oxyl)-phosphoryl]-β-D-2′-deoxy-2′-α-fluoro-2′-β-C-methyl uridine]
CC50 at 3 days (in vitro): > 200 µM

CCOC(=O)[C@@H](C)NP(=O)(CO[C@H](C)Cn1cnc2c(N)ncnc21)Oc1ccc2c(c1)OCO2 (stereo partly shown) [Compound I20]
CC50 at 3 days (in vitro): 179 µM

CC(C)OC(=O)[C@@H](C)NP(=O)(CO[C@H](C)Cn1cnc2c(N)ncnc21)Oc1ccc2c(c1)OCO2 (stereo partly shown) [Compound I21]
CC50 at 3 days (in vitro): > 200 µM

CC(C)C[C@@H](NP(=O)(CO[C@H](C)Cn1cnc2c(N)ncnc21)Oc1ccc2c(c1)OCO2)C(=O)OC(C)C (stereo partly shown) [Compound I23]
CC50 at 3 days (in vitro): > 200 µM

C[C@H](Cn1cnc2c(N)ncnc21)OCP(=O)(N[C@H](C)C(=O)OC1CCCCC1)Oc1ccc2c(c1)OCO2 (stereo partly shown) [Compound I25]
CC50 at 3 days (in vitro): > 200 µM

CCOC(=O)[C@H](C)N[P@](=O)(OC[C@H]1O[C@@H](n2ccc(=O)[nH]c2=O)[C@](C)(F)[C@@H]1O)Oc1ccc2c(c1)OCO2 [Compound I30]
CC50 (in vitro): > 200 µM

CC(C)OC(=O)[C@H](C)N[P@@](=O)(OC[C@H]1O[C@@H](n2ccc(=O)[nH]c2=O)[C@](C)(F)[C@@H]1O)Oc1ccc2c(c1)OCO2 [Compound I31-a]
ALT [1]: 421 U/L
AST [1]: 253 U/L
ALT [2]: 507 U/L
AST [2]: 446 U/L

CC(C)OC(=O)[C@H](C)N[P@](=O)(OC[C@H]1O[C@@H](n2ccc(=O)[nH]c2=O)[C@](C)(F)[C@@H]1O)Oc1ccc2c(c1)OCO2 [Compound I31-b]
ALT [1]: 375 U/L
AST [1]: 751 U/L
ALT [2]: 205 U/L
AST [2]: 439 U/L

CC(C)OC(=O)[C@H](C)NP(=O)(OC[C@H]1O[C@@H](n2ccc(=O)[nH]c2=O)[C@](C)(F)[C@@H]1O)Oc1ccc2c(c1)OCO2 (stereo partly shown) [Compound I31]
CC50 (in vitro): > 200 µM

C[C@H](N[P@](=O)(OC[C@H]1O[C@@H](n2ccc(=O)[nH]c2=O)[C@](C)(F)[C@@H]1O)Oc1ccc2c(c1)OCO2)C(=O)OC1CCCCC1 [Compound I32]
CC50 (in vitro): > 200 µM

CCOC(=O)[C@H](C)N[P@](=O)(OC[C@H]1O[C@@H](n2cnc3c(OC)nc(N)nc32)[C@](C)(F)[C@@H]1O)Oc1ccc2c(c1)OCO2 [Compound I33]
CC50 (in vitro): > 200 µM

COc1nc(N)nc2c1ncn2[C@@H]1O[C@H](CO[P@](=O)(N[C@@H](C)C(=O)OC(C)C)Oc2ccc3c(c2)OCO3)[C@@H](O)[C@@]1(C)F [Compound I34-a]
ALT [1]: 131 U/L
AST [1]: 282 U/L
ALT [2]: 293 U/L
AST [2]: 763 U/L

COc1nc(N)nc2c1ncn2[C@@H]1O[C@H](CO[P@@](=O)(N[C@@H](C)C(=O)OC(C)C)Oc2ccc3c(c2)OCO3)[C@@H](O)[C@@]1(C)F [Compound I34-b]
ALT [1]: 341 U/L
AST [1]: 194 U/L
ALT [2]: 289 U/L
AST [2]: 536 U/L

COc1nc(N)nc2c1ncn2[C@@H]1O[C@H](COP(=O)(N[C@@H](C)C(=O)OC(C)C)Oc2ccc3c(c2)OCO3)[C@@H](O)[C@@]1(C)F (stereo partly shown) [Compound I34]
CC50 (in vitro): > 200 µM

COc1nc(N)nc2c1ncn2[C@@H]1O[C@H](CO[P@@](=O)(N[C@@H](C)C(=O)OC2CCCCC2)Oc2ccc3c(c2)OCO3)[C@@H](O)[C@@]1(C)F [Compound I35]
CC50 (in vitro): > 200 µM

CC(C)OC(=O)[C@H](C)N[P@](=O)(OC[C@H]1O[C@@H](n2ccc(N)nc2=O)CS1)Oc1ccc2c(c1)OCO2 [Compound I36]
CC50 (in vitro): > 200 µM
ALT [1]: 187 U/L
AST [1]: 113 U/L
inhibition in vivo at 20 mg/kg (DHBV; [3]): 92%
inhibition in vivo at 20 mg/kg (DHBV; [4]): 10.8%
ALT [2]: 490 U/L
AST [2]: 543 U/L

COC(=O)[C@H](C)N[P@](=O)(OC[C@H]1O[C@@H](n2ccc(N)nc2=O)CS1)Oc1ccc2c(c1)OCO2 [Compound I37]
CC50 (in vitro): 193 µM
inhibition in vivo at 10 mg/kg (DHBV; [3]): 75.2%
inhibition in vivo at 10 mg/kg (DHBV; [4]): 9.4%

C=C1[C@H](COP(=O)(N[C@@H](C)C(=O)OC(C)C)Oc2cccc3c2OCO3)[C@@H](O)C[C@@H]1n1cnc2c(=O)[nH]c(N)nc21 (stereo partly drawn) [Compound I39, 9-[(1S,3R,4S)-4-hydroxyl-3-[(((benzo[1,3]dioxolan-4-yl)-oxyl)-1-isopropoxycarbonylethylamino-phosphoryl)-oxymethyl]-2-methylenecyclopentyl]-guanine]
CC50 (in vitro): 182 µM

COc1nc(N)nc2c1ncn2[C@@H]1O[C@H](COP(=O)(N[C@@H](C)C(=O)OC(C)C)Oc2cccc3c2OCO3)[C@@H](O)[C@@]1(C)F (stereo partly shown) [Compound I40]
CC50 (in vitro): > 200 µM

CC(C)OC(=O)[C@H](C)N[P@](=O)(OC[C@H]1O[C@@H](n2ccc(=O)[nH]c2=O)[C@](C)(F)[C@@H]1O)Oc1ccccc1 [PSI-7977, 5′-[(S)-[[(S)-1-(isopropoxycarbonyl)-ethyl]-amino]-phenoxylphosphoryl]-β-D-2′-deoxy-2′-α-fluoro-2′-β-C-methyluridine, reference compound]
CC50 (in vitro): 178 µM
ALT [1]: 1079 U/L
AST [1]: 1727 U/L
ALT [2]: 2324 U/L
AST [2]: 2538 U/L

COc1nc(N)nc2c1ncn2[C@@H]1O[C@H](CO[P@@](=O)(N[C@@H](C)C(=O)OC(C)C)Oc2ccccc2)[C@@H](O)[C@@]1(C)F [PSI-353661, reference compound]
CC50 (in vitro): 149 µM
ALT [1]: 1558 U/L
AST [1]: 1027 U/L
ALT [2]: 1669 U/L
AST [2]: 2312 U/L

COC(=O)[C@@H](C)NP(=O)(OCCOCn1cnc2c(=O)[nH]c(N)nc21)Oc1ccccc1 (stereo partly shown) [i-3, reference compound]
CC50 (in vitro): 177 µM
ALT [1]: 1150 U/L
AST [1]: 1419 U/L
inhibition in vivo at 20 mg/kg (DHBV; [3]): 56.6%
inhibition in vivo at 20 mg/kg (DHBV; [4]): 14.6%
ALT [2]: 231 U/L
AST [2]: 446 U/L

Reference: patent US20160115186A1, “PHOSPHORIC ACID/PHOSPHONIC ACID DERIVATIVES AND MEDICINAL USES THEREOF” (priority 2013, published 2016)
